Read-outs that look alike come from different tables or passages of the source.
What was measured:
HCV NS3 helicase = HCV NS3 helicase (Hepatitis C virus genotype 1b, UniProt Q9WMX2); type: biochemical; details: FRET screening; strongest of 41 extracts
[1] = molecular target: T1, NS3 ATPase activity (HCV NS3 protein) (Hepatitis C virus genotype 1b, UniProt Q9WMX2); experiment: Radioisotope labeling ATP hydrolysis (ATPase) assay; type: biochemical; details: for NS3 ATPase inhibition (result in words): structure-activity discussion of Table 2
Method: (§1) Following our previous report, unless otherwise stated, the standard assay reaction (10 μL) contained the following components: 25 mM MOPS-NaOH (pH 7.0), 1 mM DTT, 5 mM MgCl2, 5 mM CaCl2, 1 mM [γ-^32P] ATP, 300 nM NS3, and 0.1 μg/μL poly(U) with serial dilution of the tested compounds in DMSO. Samples were incubated at 37 °C for 10 min, and the reaction was terminated by adding 15 μL of stop solution (10 mM EDTA). A small portion (2 μL) of reaction mixture was spotted on a PEI-cellulose TLC plate (Merck Millipore, Darmstadt, Germany) and developed by ascending chromatography in 0.75 M LiCl/1 M formic acid solution for 25 min. The TLC plate was then air-dried, and applied to autoradiography measured by an Image Reader FLA-9000 and quantified by Multi Gauge V3.11 software (Fujifilm, Tokyo, Japan). For the bacterial alkaline phosphatase assay, the buffer provided with the kit (Takara Bio, Otsu, Japan) was used, and then subjected to the assay as described above.

[2] = molecular target: T2, bacterial alkaline phosphatase (Escherichia coli, UniProt P00634); experiment: ATPase assay with bacterial alkaline phosphatase (specificity); type: biochemical; details: highest concentration tested, 200 μM
T2 construct: purchased Takara Bio BAPC75
Method: as §1

NS3 RNA binding = NS3 RNA binding (Hepatitis C virus genotype 1b, UniProt Q9WMX2); experiment: Gel mobility shift assay (NS3 binding to ssRNA)
Method: GMSA was performed with slight modification as described previously. In brief, [γ-^32P] ATP-labeled single-stranded RNA (0.4 nM) was incubated in a buffer containing 30 mM Tris-HCl pH 7.5, 100 mM NaCl, 2 mM MgCl2, 1 mM DTT, 20 U of RNasin plus (Promega) in the presence of 300 nM NS3 protein with serial dilution of PBDE in DMSO at room temperature for 15 min in a final reaction volume of 20 μL. The protein-RNA complexes were loaded onto a 6% native-PAGE (acrylamide:bis = 19:1) and after electrophoresis in TBE buffer, the labeled RNA bands were visualized and quantified with an Image Reader FLA-9000 (Fujifilm) and Multi Gauge V3.11 software (Fujifilm), respectively.

[3] = test system: subgenomic replicon RNA of genotype 1b N strain; experiment: HCV replication assay (subgenomic replicon, luciferase); type: cell-based; details: Hepatitis C virus, genotype 1b strain N replicon, 72 h, read-out: suppression of HCV replication, EC50
Method: The cell lines harboring the subgenomic replicon RNAs of genotype 1b strain N [27] were seeded at 2 × 10^4 cells per well in a 48-well plate 24 h before treatment. The cells were treated with PBDE at various concentrations for 72 h and lysed in cell culture lysis reagent (Promega). A luciferase assay system (Promega) was used to determine the luciferase activity, and the luminescence was measured using Luminescencer-JNR AB-2100 (ATTO, Tokyo, Japan), corresponding to the expression level of the HCV replicon.

Toxicity assay (MTS) = type: cell-based; details: cell lines harboring the subgenomic replicon RNAs, replicon cells, read-out: cytotoxic effect, CC50
Method: MTS assay was carried out to determine cytotoxicity using a CellTiter 96 aqueous one-solution cell proliferation assay kit (Promega) according to the manufacturer’s instructions.

[4] = molecular target: T1, NS3 ATPase activity (HCV NS3 protein); experiment: Radioisotope labeling ATP hydrolysis (ATPase) assay; type: biochemical; details: PBDE 0.1 mM, NS3 600 nM, 1 mM ATP
[5] = 300 nM NS3, 1 mM [γ-32P] ATP, read-out: NS3 ATPase Inhibition IC50

T1 sequence (Q9WMX2 1027-1657): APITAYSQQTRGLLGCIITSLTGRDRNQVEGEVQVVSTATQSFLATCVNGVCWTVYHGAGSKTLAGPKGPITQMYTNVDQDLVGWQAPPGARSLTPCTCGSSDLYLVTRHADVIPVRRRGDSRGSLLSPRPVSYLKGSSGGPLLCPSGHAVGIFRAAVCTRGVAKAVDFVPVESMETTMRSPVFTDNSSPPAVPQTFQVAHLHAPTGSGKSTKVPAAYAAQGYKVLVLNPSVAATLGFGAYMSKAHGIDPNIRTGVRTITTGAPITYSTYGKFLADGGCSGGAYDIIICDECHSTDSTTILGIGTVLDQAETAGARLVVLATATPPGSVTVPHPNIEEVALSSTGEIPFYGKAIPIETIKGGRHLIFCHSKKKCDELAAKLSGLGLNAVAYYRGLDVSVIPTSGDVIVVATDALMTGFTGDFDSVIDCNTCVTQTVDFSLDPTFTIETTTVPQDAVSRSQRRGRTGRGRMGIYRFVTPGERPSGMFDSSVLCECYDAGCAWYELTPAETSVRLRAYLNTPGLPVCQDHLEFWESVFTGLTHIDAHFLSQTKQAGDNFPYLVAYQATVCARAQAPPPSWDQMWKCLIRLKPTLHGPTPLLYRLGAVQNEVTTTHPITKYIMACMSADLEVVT
Chain of NS3 RNA binding (Q9WMX2 1027-1657): as above
Chain of HCV NS3 helicase (Q9WMX2 1027-1657): as above
T2 sequence (P00634 22-471): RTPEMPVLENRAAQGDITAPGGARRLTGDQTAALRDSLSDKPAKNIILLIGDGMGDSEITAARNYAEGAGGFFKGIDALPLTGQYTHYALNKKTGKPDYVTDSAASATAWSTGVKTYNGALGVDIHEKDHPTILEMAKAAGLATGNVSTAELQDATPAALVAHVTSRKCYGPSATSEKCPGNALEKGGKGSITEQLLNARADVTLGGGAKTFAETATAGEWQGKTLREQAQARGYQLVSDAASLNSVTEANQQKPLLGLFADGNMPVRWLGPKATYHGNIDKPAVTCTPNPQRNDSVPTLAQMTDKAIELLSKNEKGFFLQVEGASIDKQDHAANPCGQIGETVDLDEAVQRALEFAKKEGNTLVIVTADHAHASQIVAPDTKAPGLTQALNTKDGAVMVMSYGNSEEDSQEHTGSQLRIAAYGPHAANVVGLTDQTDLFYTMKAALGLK

SMILES	IC50 [1] [µM]	NS3 ATPase inhibition (result in words) [1]	also measured
Oc1cc(Br)cc(Br)c1Oc1ccc(Br)cc1Br [Compound 1, 6-hydroxy-2,2',4,4'-tetrabromodiphenyl ether]	80	–	inhibition of NS3 helicase activity (HCV NS3 helicase): 37%; inhibition of ATPase activity of bacterial alkaline phosphatase [2]: no inhibition; IC50 (NS3 RNA binding): 68 µM; EC50 [3]: 3.3 µM; CC50 at 72 h (Toxicity assay (MTS)): > 5 µM; NS3 ATPase inhibition in presence and absence of poly(U) RNA [4]: significantly active in both the presence and absence of poly(U)
COc1cc(Br)cc(Br)c1Oc1ccc(Br)cc1Br [Compound 2, PBDE methyl ether]	> 200	complete loss of the inhibitory activity	–
Oc1c(Br)cc(Br)cc1-c1cc(Br)cc(Br)c1O [Compound 3, Bromophene]	94	remained at the same level as that of PBDE (1)	–
Oc1cc(Cl)ccc1Oc1ccc(Cl)cc1Cl [Compound 4, triclosan, reference compound]	150	moderate levels of inhibition	–
Oc1c(Br)cc(Br)cc1Br [Compound 5, 2,4,6-tribromophenol]	> 200	did not exhibit the inhibitory activity	–
CC(C)(c1cc(Br)c(O)c(Br)c1)c1cc(Br)c(O)c(Br)c1 [Compound 6, 3,3',5,5'-tetrabromobisphenol A]	120	same level of inhibition as that of bromophene 3	–
Oc1ccccc1-c1ccccc1 [Compound 7, O-hydroxybiphenyl]	> 200	loss of the inhibitory activity	–
Oc1ccc2cc(Br)ccc2c1-c1c(O)ccc2cc(Br)ccc12 [Compound 8, (R)-(−)-6,6'-dibromo-1,1'-bi-2-naphthol]	–	most potent activity	IC50 [1, 5]: 54 µM
CC(C)(c1cc(Cl)c(O)c(Cl)c1)c1cc(Cl)c(O)c(Cl)c1 [Compound 9, tetrachlorobisphenol A]	94	same level of inhibition as that of bromophene 3	–
Oc1ccc2cc(Br)ccc2c1Br [Compound 10, 1,6-dibromo-2-naphthol]	> 200	did not exhibit the inhibitory activity	–
Oc1c(F)c(F)c(-c2c(F)c(F)c(F)c(F)c2F)c(F)c1F [Compound 11, 2,3,5,6-tetrafluoro-4-(pentafluorophenyl)phenol]	> 200	inactive	–
Oc1c(Br)cc2ccccc2c1-c1c(O)c(Br)cc2ccccc12 [Compound 12, (R)-(+)-3-3'-dibromo-1,1'-bi-2-naphthol]	–	no activity	IC50 [1, 5]: > 200 µM
Oc1c(Br)cc2c(c1-c1c(O)c(Br)cc3c1CCCC3)CCCC2 [Compound 13, (R)-(+)-3,3'-dibromo-5,5',6,6',7,7',8,8'-octahydro-1,1'-bi-2,2'-naphthalenediol]	–	no activity	IC50 [1, 5]: > 200 µM
CC(C)(c1cc(Br)c(OCCO)c(Br)c1)c1cc(Br)c(OCCO)c(Br)c1 [Compound 14, 4,4'-isopropylidenebis[2-(2,6-dibromophenoxy)ethanol]]	> 200	loss of activity	–
Oc1ccc(Cl)cc1-c1cc(Cl)c(Cl)c(Cl)c1Cl [Compound 15, 2-Hydroxy-2',3',4',5,5'-pentachlorobiphenyl]	54	most potent inhibitory activity of all the analogs in this study	–
Oc1c(-c2ccccc2)cc(-c2ccc(Br)cc2)cc1-c1ccccc1 [Compound 16, 4-(4-bromophenyl)-2,6-diphenylphenol]	–	did not show inhibitory activity	IC50 [1, 5]: > 200 µM
Brc1ccc(Oc2ccc(Br)cc2Br)c(Br)c1 [Compound 17, 2,2',4,4'-tetrabromodiphenyl ether]	> 200	complete loss of the inhibitory activity	–

Source: article PMC6271602, “PBDE: Structure-Activity Studies for the Inhibition of Hepatitis C Virus NS3 Helicase” (Molecules, 2014)
